US9738634B2, “Heterocyclic amide compound and herbicide” (SYNGENTA PARTICIPATIONS AG, priority 2013, dated 2017)

Assays:
Type in all cases: in vivo
Italian ryegrass = assay: Test Example 3: weedkilling efficacy through soil treatment; I: Italian ryegrass; details: soil treatment, treatment dosage 320 g/ha
How it was run: (§1)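 Crop and weed responses were judged three weeks after a uniform surface spray of the water-diluted emulsion at the given g/ha rate. Seeds sat beneath about 1.5 cm of sterilized diluvial soil, and boxes stood in a greenhouse at 25 to 30° C.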

fig-leafed goosefoot = assay: Test Example 3: weedkilling efficacy through soil treatment; M: fig-leafed goosefoot; details: soil treatment, treatment dosage 320 g/ha
How it was run: as §1

corn = assay: Test Example 3: soil treatment, effect on crop; c: corn; details: soil treatment, treatment dosage 320 g/ha
How it was run: as §1

soybean = assay: Test Example 3: soil treatment, effect on crop; d: soybean; details: soil treatment, treatment dosage 320 g/ha
How it was run: as §1

oval-leafed pondweed [1] = assay: Test Example 2: weedkilling efficacy, growth period weed treatment in the submerged state; C: oval-leafed pondweed; details: treatment dosage 320 g/ha
How it was run: (§2)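 Barnyard grass, bulrush and oval-leafed pondweed sown in alluvial soil under 4 cm flooding, greenhouse 25 to 30° C. At 1-2 leaf stage, water-diluted emulsion applied to the water surface at stated g/ha dosages; effects scored 3 weeks later.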

catchweed = assay: Test Example 3: weedkilling efficacy through soil treatment; O: catchweed; details: soil treatment, treatment dosage 320 g/ha
How it was run: as §1

barnyard grass [2] = assay: Test Example 1: weedkilling efficacy, preemergent weed treatment in the submerged state; A: barnyard grass; details: treatment dosage 320 g/ha
How it was run: (§3)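 Pots of alluvial soil flooded 4 cm deep, sown with barnyard grass, bulrush and oval-leafed pondweed and transplanted with 2.5-leaf rice. Emulsified compound applied to the water surface on sowing day at stated g/ha; greenhouse 25–30 °C, effects assessed 3 weeks after treatment.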

rapeseed = assay: Test Example 3: soil treatment, effect on crop; g: rapeseed; details: soil treatment, treatment dosage 320 g/ha
How it was run: as §1

transplanted rice = assay: Test Example 1: preemergent weed treatment in the submerged state, effect on crop; a: transplanted rice; details: treatment dosage 320 g/ha
How it was run: as §3

barnyard grass [3] = assay: Test Example 3: weedkilling efficacy through soil treatment; F: barnyard grass; details: soil treatment, treatment dosage 320 g/ha
How it was run: as §1

green foxtail = assay: Test Example 3: weedkilling efficacy through soil treatment; E: green foxtail; details: soil treatment, treatment dosage 320 g/ha
How it was run: as §1

wild oat = assay: Test Example 3: weedkilling efficacy through soil treatment; G: wild oat; details: soil treatment, treatment dosage 320 g/ha
How it was run: as §1

bulrush [4] = assay: Test Example 1: weedkilling efficacy, preemergent weed treatment in the submerged state; B: bulrush; details: treatment dosage 320 g/ha
How it was run: as §3

bulrush [5] = assay: Test Example 2: weedkilling efficacy, growth period weed treatment in the submerged state; B: bulrush; details: treatment dosage 320 g/ha
How it was run: as §2

birds-eye speedwell = assay: Test Example 3: weedkilling efficacy through soil treatment; p: birds-eye speedwell; details: soil treatment, treatment dosage 320 g/ha
How it was run: as §1

directly sown rice = assay: Test Example 3: soil treatment, effect on crop; b: directly sown rice; details: soil treatment, treatment dosage 320 g/ha
How it was run: as §1

redroot pigweed = assay: Test Example 3: weedkilling efficacy through soil treatment; L: redroot pigweed; details: soil treatment, treatment dosage 320 g/ha
How it was run: as §1

wheat = assay: Test Example 3: soil treatment, effect on crop; e: wheat; details: soil treatment, treatment dosage 320 g/ha
How it was run: as §1

oval-leafed pondweed [6] = assay: Test Example 1: weedkilling efficacy, preemergent weed treatment in the submerged state; C: oval-leafed pondweed; details: treatment dosage 320 g/ha
How it was run: as §3

chickweed = assay: Test Example 3: weedkilling efficacy through soil treatment; N: chickweed; details: soil treatment, treatment dosage 320 g/ha
How it was run: as §1

common wind-grass = assay: Test Example 3: weedkilling efficacy through soil treatment; J: common wind-grass; details: soil treatment, treatment dosage 320 g/ha
How it was run: as §1

barnyard grass [7] = assay: Test Example 2: weedkilling efficacy, growth period weed treatment in the submerged state; A: barnyard grass; details: treatment dosage 320 g/ha
How it was run: as §2

Indian mallow = assay: Test Example 3: weedkilling efficacy through soil treatment; K: Indian mallow; details: soil treatment, treatment dosage 320 g/ha
How it was run: as §1

crabgrass = assay: Test Example 3: weedkilling efficacy through soil treatment; D: crabgrass; details: soil treatment, treatment dosage 320 g/ha
How it was run: as §1

beet = assay: Test Example 3: soil treatment, effect on crop; f: beet; details: soil treatment, treatment dosage 320 g/ha
How it was run: as §1

black-grass = assay: Test Example 3: weedkilling efficacy through soil treatment; H: black-grass; details: soil treatment, treatment dosage 320 g/ha
How it was run: as §1

Compound	I: Italian ryegrass, weedkilling efficacy grade (Italian ryegrass)	M: fig-leafed goosefoot, weedkilling efficacy grade (fig-leafed goosefoot)	c: corn, effect on crop grade (corn)	d: soybean, effect on crop grade (soybean)	C (oval-leafed pondweed) weedkilling efficacy grade (oval-leafed pondweed [1])	O: catchweed, weedkilling efficacy grade (catchweed)	A: barnyard grass, weed kill grade (barnyard grass [2])	g: rapeseed, effect on crop grade (rapeseed)	a: transplanted rice, effect on crop grade (transplanted rice)	F: barnyard grass, weedkilling efficacy grade (barnyard grass [3])	E: green foxtail, weedkilling efficacy grade (green foxtail)	G: wild oat, weedkilling efficacy grade (wild oat)	B: bulrush, weed kill grade (bulrush [4])	B (bulrush) weedkilling efficacy grade (bulrush [5])	P: birds-eye speedwell, weedkilling efficacy grade (birds-eye speedwell)	b: directly sown rice, effect on crop grade (directly sown rice)	L: redroot pigweed, weedkilling efficacy grade (redroot pigweed)	e: wheat, effect on crop grade (wheat)	C: oval-leafed pondweed, weed kill grade (oval-leafed pondweed [6])	N: chickweed, weedkilling efficacy grade (chickweed)	other results
COc1cc(F)nc(NC(=O)C(C)(C)N2COCN(c3ccccc3)C2=O)c1 [A-2-23]	5 (weed kill ratio 90% or more, (practically complete withering))	4 (weed kill ratio 70% or more, less than 90%)	0 (weed kill ratio 5% or less (practically no effect))	0 (weed kill ratio 5% or less (practically no effect))	5 (weed kill ratio 90% or more, (practically complete withering))	4 (weed kill ratio 70% or more, less than 90%)	5 (weed kill ratio 90% or more, (practically complete withering))	4 (weed kill ratio 70% or more, less than 90%)	3 (weed kill ratio 40% or more, less than 70%)	5 (weed kill ratio 90% or more, (practically complete withering))	5 (weed kill ratio 90% or more, (practically complete withering))	4 (weed kill ratio 70% or more, less than 90%)	5 (weed kill ratio 90% or more, (practically complete withering))	5 (weed kill ratio 90% or more, (practically complete withering))	5 (weed kill ratio 90% or more, (practically complete withering))	5 (weed kill ratio 90% or more, (practically complete withering))	0 (weed kill ratio 5% or less (practically no effect))	0 (weed kill ratio 5% or less (practically no effect))	5 (weed kill ratio 90% or more, (practically complete withering))	4 (weed kill ratio 70% or more, less than 90%)	J: common wind-grass, weedkilling efficacy grade (common wind-grass): 5 (weed kill ratio 90% or more, (practically complete withering)); A (barnyard grass) weedkilling efficacy grade (barnyard grass [7]): 5 (weed kill ratio 90% or more, (practically complete withering)); K: Indian mallow, weedkilling efficacy grade (Indian mallow): 0 (weed kill ratio 5% or less (practically no effect)); D: crabgrass, weedkilling efficacy grade (crabgrass): 5 (weed kill ratio 90% or more, (practically complete withering)); f: beet, effect on crop grade (beet): 3 (weed kill ratio 40% or more, less than 70%); H: black-grass, weedkilling efficacy grade (black-grass): 5 (weed kill ratio 90% or more, (practically complete withering))
CCc1cc(F)nc(NC(=O)C(C)(C)N2COCN(c3ccccc3)C2=O)c1 [A-2-21]	5 (weed kill ratio 90% or more, (practically complete withering))	5 (weed kill ratio 90% or more, (practically complete withering))	0 (weed kill ratio 5% or less (practically no effect))	3 (weed kill ratio 40% or more, less than 70%)	5 (weed kill ratio 90% or more, (practically complete withering))	4 (weed kill ratio 70% or more, less than 90%)	5 (weed kill ratio 90% or more, (practically complete withering))	4 (weed kill ratio 70% or more, less than 90%)	5 (weed kill ratio 90% or more, (practically complete withering))	5 (weed kill ratio 90% or more, (practically complete withering))	5 (weed kill ratio 90% or more, (practically complete withering))	5 (weed kill ratio 90% or more, (practically complete withering))	5 (weed kill ratio 90% or more, (practically complete withering))	5 (weed kill ratio 90% or more, (practically complete withering))	5 (weed kill ratio 90% or more, (practically complete withering))	5 (weed kill ratio 90% or more, (practically complete withering))	4 (weed kill ratio 70% or more, less than 90%)	1 (weed kill ratio 5% or more, less than 20%)	5 (weed kill ratio 90% or more, (practically complete withering))	4 (weed kill ratio 70% or more, less than 90%)	J: common wind-grass, weedkilling efficacy grade (common wind-grass): 5 (weed kill ratio 90% or more, (practically complete withering)); A (barnyard grass) weedkilling efficacy grade (barnyard grass [7]): 5 (weed kill ratio 90% or more, (practically complete withering)); K: Indian mallow, weedkilling efficacy grade (Indian mallow): 2 (weed kill ratio 20% or more, less than 40%); D: crabgrass, weedkilling efficacy grade (crabgrass): 5 (weed kill ratio 90% or more, (practically complete withering)); f: beet, effect on crop grade (beet): 0 (weed kill ratio 5% or less (practically no effect)); H: black-grass, weedkilling efficacy grade (black-grass): 5 (weed kill ratio 90% or more, (practically complete withering))
CC(C)(C(=O)Nc1ccn(C(F)F)n1)N1COCN(c2ccccc2)C1=O [A-1-04]	5 (weed kill ratio 90% or more, (practically complete withering))	3 (weed kill ratio 40% or more, less than 70%)	0 (weed kill ratio 5% or less (practically no effect))	2 (weed kill ratio 20% or more, less than 40%)	4 (weed kill ratio 70% or more, less than 90%)	2 (weed kill ratio 20% or more, less than 40%)	5 (weed kill ratio 90% or more, (practically complete withering))	4 (weed kill ratio 70% or more, less than 90%)	0 (weed kill ratio 5% or less (practically no effect))	2 (weed kill ratio 20% or more, less than 40%)	3 (weed kill ratio 40% or more, less than 70%)	2 (weed kill ratio 20% or more, less than 40%)	5 (weed kill ratio 90% or more, (practically complete withering))	4 (weed kill ratio 70% or more, less than 90%)	3 (weed kill ratio 40% or more, less than 70%)	0 (weed kill ratio 5% or less (practically no effect))	0 (weed kill ratio 5% or less (practically no effect))	0 (weed kill ratio 5% or less (practically no effect))	4 (weed kill ratio 70% or more, less than 90%)	4 (weed kill ratio 70% or more, less than 90%)	J: common wind-grass, weedkilling efficacy grade (common wind-grass): 5 (weed kill ratio 90% or more, (practically complete withering)); A (barnyard grass) weedkilling efficacy grade (barnyard grass [7]): 3 (weed kill ratio 40% or more, less than 70%); K: Indian mallow, weedkilling efficacy grade (Indian mallow): 0 (weed kill ratio 5% or less (practically no effect)); D: crabgrass, weedkilling efficacy grade (crabgrass): 3 (weed kill ratio 40% or more, less than 70%); f: beet, effect on crop grade (beet): 3 (weed kill ratio 40% or more, less than 70%); H: black-grass, weedkilling efficacy grade (black-grass): 4 (weed kill ratio 70% or more, less than 90%)
